Assay results: patent US20110166223A1, “METHODS OF INHIBITING FGFR3 SIGNALING” (CEDARS-SINAI MEDICAL CENTER, priority 2008, published 2011)

Key:
[1] = target: T1, recombinant tyrosine kinase (TK) domain of FGFR3 (Homo sapiens, UniProt P22607); conditions: previous work [9, 12]; cited from earlier work
T1 construct: recombinant tyrosine kinase (TK) domain of FGFR3 (Glu-322-Thr-806; Cell Signaling); purchased Cell Signaling

[2] = system: FGF2/FGFR3-mediated growth-arrest of rat chondrosarcoma (RCS) cells; conditions: previous work [9, 12]; cited from earlier work
[3] = system: FGF2/FGFR3-mediated growth-arrest of rat chondrosarcoma (RCS) cells
Source text: In this assay, the FGF2/FGFR3-mediated growth-arrest of rat chondrosarcoma (RCS) cells is used as a reporter, thus allowing for elimination of toxic compounds as false-positive hits (Krejci, et al., Invest New Drugs 2007, 25: 391-395).
Rat chondrosarcoma chondrocytes (RCS), chinese hamster ovary (CHO) cells and MM cell lines OPM2 and KMS11 were propagated in DMEM, Opti-MEM or RPMI media (Gibco, Gaitherbsburg, Md.), supplemented with 10% fetal bovine serum (Atlanta Biological, Nordeross, Ga.) and antibiotics. […] For the RCS growth-arrest experiments shown at FIGS. 1 and 4c, 1×10^4 RCS chondrocytes were seeded in 24-well tissue culture plates (Costar, Cambridge, Mass.), treated as indicated for 72 hours, and counted. FGF2 was obtained from R&D Systems (Minneapolis, Minn.); C-natriuretic peptide, suramin, NF023 and NF449 were from Calbiochem (San Diego, Calif.).

[4] = target: T1, recombinant tyrosine kinase (TK) domain of FGFR3; test: Cell-free FGFR3 kinase assay with STAT1 as substrate; type: biochemical; conditions: added directly to the kinase reaction; FIG. 4
Experimental: FIG. 4, in accordance with an embodiment herein, depicts 4,4′,4″,4′″-[carbonyl-bis[imino-5,1,3-benzenetriyl bis-{carbonylimino}]]tetrakis-{benzene-1,3-disulfonic acid} inhibits FGFR3 activity in a kinase assay. (a, b) Cell-free kinase assays were carried out as described herein, with recombinant tyrosine kinase (TK) domain of FGFR3 as a kinase, recombinant STAT1 as a substrate, and NF449 added directly to the kinase reaction. FGFR3-mediated phosphorylation of STAT1 was detected by WB with P-STAT1 (Y^701) antibody. The membrane was reprobed with FGFR3 and STAT1 antibodies to control for kinase and substrate quantity. The sample with ATP omitted serves as a negative control for the kinase reaction. Note the FGFR3-mediated phosphorylation of STAT1 is inhibited by 4,4′,4″,4′″-[carbonyl-bis[imino-5,1,3-benzenetriyl bis-{carbonylimino}]]tetrakis-{benzene-1,3-disulfonic acid}. The P-STAT1 and STAT1 signal was quantified by densitometry and expressed as a ratio between P-STAT1 and STAT1 signal for each given sample (b, lower graph). (c) The FGFR3 kinase assay was carried-out as described in (a) with 4,4′,4″,4′″-[carbonyl-bis[imino-5,1,3-benzenetriyl bis-{carbonylimino}]]tetrakis-{benzene-1,3-disulfonic acid}, 8,8′-[carbonylbis[imino-3,1-phenylenecarbonylimino{4-methyl-3,1-phenylene}carbonylimino]]bis-1,3,5-naphthalenetrisulfonic acid or 8,8′-[carbonylbis[imino-3,1-phenylene]]bis-{1,3,5-naphthalenetrisulfonic acid} added to the kinase reaction. Note the differential effects of 8,8′-[carbonylbis[imino-3,1-phenylenecarbonylimino{4-methyl-3,1-phenylene}carbonylimino]]bis-1,3,5-naphthalenetrisulfonic acid and 8,8′-[carbonylbis[imino-3,1-phenylene]]Bis-{1,3,5-naphthalenetrisulfonic acid} on the FGFR3-mediated phosphorylation of STAT1, which corresponds to their activity in the RCS growth-arrest experiment (lower graph). Data are an average from four wells with the indicated standard deviation. Statistically significant rescue of the growth arrest is indicated (Student's I-test; *-p<0.01).
OPM2 and KMS11 cells were lysed in ice-cold immunoprecipitation buffer (50 mM Tris-HCl pH 7.4, 150 mM NaCl, 0.5% NP-40, 1 mM EDTA, 25 mM NaF) supplemented with proteinase inhibitors and 10 mM sodium orthovanadate. Protein samples were resolved by SDS-PAGE and transferred onto a PVDF membrane. The following antibodies were used: Erk1/2, P-Erk1/2^T202/Y204, STAT1, P-STAT1^Y701 (Cell Signaling, Beverly, Mass.) and FGFR3 (Santa Cruz Biotechnology, Santa Cruz, Calif.). Western blotting signal was quantified by determining the integrated optical density (I.O.D.) of a given band using Scion Image software (Scion Corporation, Frederick, Mass.). Immunoprecipitations and FGFR3 kinase assays were performed as described. Briefly, the pRK7 vector encoding C-terminally FLAG-tagged K650E-FGFR3 was transfected into CHO cells using FuGENE6 reagent according to the manufacturer's protocol (Roche Applied Science, Indianapolis, Ind.). 48 hours after transfection, cells were treated with 20 ng/ml of FGF2 for 15 minutes and K650E-FGFR3 was immunoprecipitated from 800 μg of cell lysate protein using 4 μg of anti-FLAG antibody (Sigma-Aldrich, St. Louis, Mo.). Cells transfected with a plasmid encoding green fluorescent protein (pCCEY) serve as a negative control for the immunoprecipitation. Immunocomplexes were washed two times with kinase buffer (60 mM HEPES-NaOH pH 7.5, 3 mM MgCl2, 3 mM MnCl2, 3 μM Na3VO4, 1.2 mM dithiothreitol), and the kinase reactions were performed for 30 minutes at 30° C. in the presence of 2.5 μg of polyethylene glycol, 10 μM ATP, 300 ng of recombinant STAT1 (Active Motif, Carlsbad, Calif.) as a substrate, and NF449 added directly to the kinase reaction. Kinase assays utilizing recombinant tyrosine kinase (TK) domain of FGFR3 (Glu-322-Thr-806; Cell Signaling) were carried-out similarly, with 300 ng of kinase used in 50 μl reaction, and suramin, NF449 and NF023 added directly to the kinase reaction. […]

T1 sequence (P22607 322-806): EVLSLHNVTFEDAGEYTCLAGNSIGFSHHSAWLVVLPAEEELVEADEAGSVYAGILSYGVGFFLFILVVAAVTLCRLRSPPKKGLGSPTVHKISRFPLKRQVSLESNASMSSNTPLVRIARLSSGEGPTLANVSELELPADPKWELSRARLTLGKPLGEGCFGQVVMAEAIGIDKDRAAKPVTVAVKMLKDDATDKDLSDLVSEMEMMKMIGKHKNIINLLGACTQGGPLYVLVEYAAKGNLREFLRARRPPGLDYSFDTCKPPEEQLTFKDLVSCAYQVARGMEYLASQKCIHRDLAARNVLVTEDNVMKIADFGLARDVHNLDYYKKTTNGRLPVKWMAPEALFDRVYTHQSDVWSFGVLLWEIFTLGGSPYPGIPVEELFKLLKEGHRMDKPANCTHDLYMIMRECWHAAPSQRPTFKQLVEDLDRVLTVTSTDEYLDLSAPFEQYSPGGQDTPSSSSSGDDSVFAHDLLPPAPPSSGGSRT

**Q.** With Cc1c[nH]c(/C=C2\C(=O)Nc3ccccc32)c1CCC(=O)O [SU5402] as the compound, how does the “concentration range inhibiting FGFR3 kinase activity” value [1] read?
**A.** 2 to 20 µM

**Q.** And the “concentration range inhibiting RCS growth arrest” value [2]?
**A.** 2 to 20 µM

**Q.** What does the source list for Cc1ccc(C(=O)Nc2ccc(S(=O)(=O)O)c3cc(S(=O)(=O)O)cc(S(=O)(=O)O)c23)cc1NC(=O)c1cccc(NC(=O)Nc2cccc(C(=O)Nc3cc(C(=O)Nc4ccc(S(=O)(=O)O)c5cc(S(=O)(=O)O)cc(S(=O)(=O)O)c45)ccc3C)c2)c1 [suramin, 8,8′-[carbonylbis[imino-3,1-phenylenecarbonylimino{4-methyl-3,1-phenylene}carbonylimino]]bis-1,3,5-naphthalenetrisulfonic acid, reference compound]?
**A.** effect on FGF2/FGFR3-mediated growth arrest (in words) ([3]; RCS chondrocytes, FIGS. 1, 4c): reversed the FGF2/FGFR3-mediated growth arrest; effect on FGFR3 kinase activity (in words) [4]: inhibited FGFR3 kinase activity

**Q.** Which “rescue of the FGF2-mediated RCS growth-arrest” value ([3]; FIG. 1b, each agent alone, 72 hours) does the source give for “C-natriuretic peptide [CNP, reference compound]” here?
**A.** ~23%
